Measured values: patent US20110306606A1, “NOVEL 2,6-SUBSTITUTED-3-NITROPYRIDINE DERIVATIVE, METHOD FOR PREPARING SAME, AND PHARMACEUTICAL COMPOSITION INCLUDING SAME” (priority 2008, published 2011)

What follows are compounds tested on Osteoblasts (Calvarial cells) (assay: Cytotoxicity test (MTT)). Settings: 1 μM compound, 72 hours, in comparison with vehicle control.

**Q.** Which “Cell viability (%) Calvarial cell” value does the source give for `NC1CCN(c2ccc(Nc3nc(N4CCC(O)CC4)ccc3[N+](=O)[O-])cc2F)CC1` [Compound 251, 2-{[3-fluoro-4-(4-aminopiperidino)]phenylamino}-6-(4-hydroxypiperidino)-3-nitropyridine] here?
**A.** 97%

**Q.** Which “Cell viability (%) Calvarial cell” value does the source give for `NC(=O)C1CCCN(c2ccc(Nc3nc(NCCN4CCOCC4)ccc3[N+](=O)[O-])cc2F)C1` (centres unmarked) [Compound 313, 2-{[3-fluoro-4-(3-carbamoylpiperidino)]phenylamino}-6-[2-(morpholin-1-yl)ethylamino]-3-nitropyridine] here?
**A.** 106%

**Q.** Which “Cell viability (%) Calvarial cell” value does the source give for `CN1CCN(c2ccc([N+](=O)[O-])c(Nc3ccc(N4CCOCC4)c(F)c3)n2)CC1` [Compound 200, 2-[(3-fluoro-4-morpholino)phenylamino]-6-(4-methylpiperazin-1-yl)-3-nitropyridine] here?
**A.** 107%

**Q.** `CCN(CC)c1ccc(Nc2nc(N3CCN=C3C)ccc2[N+](=O)[O-])cc1F` [Compound 181, 2-[(3-fluoro-4-diethylamino)phenylamino]-6-[(2-methyl-4,5-dihydro)imidazol-1-yl]-3-nitropyridine] was tested. Which “Cell viability (%) Calvarial cell” value did it give?
**A.** 106%

**Q.** How did the “Cell viability (%) Calvarial cell” value turn out when `NC(=O)C1CCCN(c2ccc(Nc3nc(N4CCNCC4)ccc3[N+](=O)[O-])cc2F)C1` (centres unmarked) [Compound 306, 2-{[3-fluoro-4-(3-carbamoylpiperidino)]phenylamino}-6-(piperazin-1-yl)-3-nitropyridine] was run?
**A.** 122%

**Q.** Which “Cell viability (%) Calvarial cell” value does the source give for `CC(C)(C)Nc1ccc([N+](=O)[O-])c(Nc2ccc(N3CCCC(CO)C3)c(F)c2)n1` (centres unmarked) [Compound 278, 2-{[3-fluoro-4-(3-hydroxymethylpiperidino)]phenylamino}-6-(t-butylamino)-3-nitropyridine] here?
**A.** 118%

**Q.** How did the “Cell viability (%) Calvarial cell” value turn out when `CN1CCN(c2ccc([N+](=O)[O-])c(Nc3ccc(N4CCCC(CO)C4)c(F)c3)n2)CC1` (centres unmarked) [Compound 282, 2-{[3-fluoro-4-(3-hydroxymethylpiperidino)]phenylamino}-6-(4-methylpiperazin-1-yl)-3-nitropyridine] was run?
**A.** 107%

**Q.** Which “Cell viability (%) Calvarial cell” value does the source give for `O=[N+]([O-])c1ccc(N2CCC(O)CC2)nc1Nc1ccc(N2CCNCC2)c(F)c1` [Compound 218, 2-[(3-fluoro-4-piperazino)phenylamino]-6-(4-hydroxypiperidino)-3-nitropyridine] here?
**A.** 96%

**Q.** With `CC(C)(C)Nc1ccc([N+](=O)[O-])c(Nc2ccc(N3CCNCC3)c(F)c2)n1` [Compound 222, 2-[(3-fluoro-4-piperazino)phenylamino]-6-(t-butylamino)-3-nitropyridine] as the compound, how does the “Cell viability (%) Calvarial cell” value read?
**A.** 95%

**Q.** For `COc1ccc(Nc2nc(N(C)CCO)ccc2[N+](=O)[O-])cc1` [Compound 24, 2-(4-methoxyphenylamino)-6-[(N-methyl-2-hydroxy)ethylamino]-3-nitropyridine], which “Cell viability (%) Calvarial cell” value is on record?
**A.** 99%

**Q.** `O=[N+]([O-])c1ccc(N2CCOCC2)nc1Nc1ccc(N2CCCC(CO)C2)c(F)c1` (centres unmarked) [Compound 283, 2-{[3-fluoro-4-(3-hydroxymethylpiperidino)]phenylamino}-6-morpholino-3-nitropyridine] was tested. Which “Cell viability (%) Calvarial cell” value did it give?
**A.** 103%

**Q.** For `CN(CC1OCCO1)c1ccc([N+](=O)[O-])c(Nc2ccc(F)c(F)c2)n1` [Compound 127, 2-[(3,4-difluoro)phenylamino]-6-[(N-[1,3]-dioxolan-2-ylmethyl)-methylamino]-3-nitropyridine], which “Cell viability (%) Calvarial cell” value is on record?
**A.** 99%

**Q.** For `CC1CCCCN1c1ccc(Nc2nc(NCCCN3CCOCC3)ccc2[N+](=O)[O-])cc1F` (centres unmarked) [Compound 274, 2-{[3-fluoro-4-(2-methylpiperidino)]phenylamino}-6-[(3-morpholin-1-yl)propylamino]-3-nitropyridine], which “Cell viability (%) Calvarial cell” value is on record?
**A.** 102%

**Q.** How did the “Cell viability (%) Calvarial cell” value turn out when `Nc1ccc(Nc2nc(NCCCN3CCOCC3)ccc2[N+](=O)[O-])cc1` [Compound 69, 2-[4-(amino)phenylamino]-6-[3-(morpholin-1-yl)propylamino]-3-nitropyridine] was run?
**A.** 110%
